Data published in patent US9365613B2, “Acylated 4-amidino- and -4-guanidinobenzylamines for inhibition of plasma kallikrein” (The Medicines Company (Leipzig) GmbH, priority 2003, dated 2016).
pKi: −log10 of the molar value.

Experiments:
PK = PK (Homo sapiens, UniProt P03952); conditions: read-out: Ki PK (literature); cited from earlier work
human factor XIIa = target: T1, human factor XIIa (Homo sapiens, UniProt P00748); experiment: Inhibitory constants for factor XIIa (substrate H-D-HHT-Gly-Arg-pNA, Chromozym XII); assay type: biochemical; conditions: read-out: Ki F XIIa
T1 construct: purchased Haemochrom Diagnostica GmbH, Essen, Germany
Method: (§1) The inhibitory effect for the individual enzymes was determined in analogy with a method which has already been described (Stürzebecher et al., J. Med. Chem. 40, 3091-3099, 1997).
(§2) After 3 min, the reaction was terminated by adding 25 μl of acetic acid (50%) and the absorption at […] was determined using a Microplate Reader (Labsystems iEMS Reader MF). The Ki values were determined, in accordance with Dixon (Biochem. J. 55, 170-171, 1953), by means of linear regression and using a computer program. The Ki values are the mean of at least three determinations.
(§3) The inhibition of factor XIa and factor XIIa was determined in an analogous manner. When determining the inhibitory constants for human factor XIa (Haemochrom Diagnostica GmbH, Essen, Germany), H-D-Lys(Z)-Pro-Arg-pNA (Chromozym PCa, Roche Diagnostics GmbH, Mannheim, Germany) was used as the substrate.
H-D-HHT-Gly-Arg-pNA (Chromozym XII, Roche Diagnostics GmbH, Mannheim, Germany) was used as the substrate for measuring the inhibitory constants of human factor XIIa (Haemochrom Diagnostica GmbH, Essen, Germany).

human factor XIa = target: T2, human factor XIa (Homo sapiens, UniProt P03951); experiment: Inhibitory constants for factor XIa (substrate H-D-Lys(Z)-Pro-Arg-pNA, Chromozym PCa); assay type: biochemical; conditions: read-out: Ki F XIa
T2 construct: purchased Haemochrom Diagnostica GmbH, Essen, Germany
Method: as §1, §2, §3

thrombin = thrombin (UniProt P00735); experiment: Inhibitory constants for thrombin; assay type: biochemical; conditions: read-out: Ki Thrombin
plasma kallikrein (PK) = plasma kallikrein (PK) (Homo sapiens, UniProt P03952); experiment: Determining the inhibitory constants: inhibition of PK (substrate Bzl-Pro-Phe-Arg-pNA); assay type: biochemical; conditions: Tris buffer pH 8.0, 25° C.; mean of at least three determinations
Method: as §1, §2

T2 sequence (P03951 388-625 limits assumed): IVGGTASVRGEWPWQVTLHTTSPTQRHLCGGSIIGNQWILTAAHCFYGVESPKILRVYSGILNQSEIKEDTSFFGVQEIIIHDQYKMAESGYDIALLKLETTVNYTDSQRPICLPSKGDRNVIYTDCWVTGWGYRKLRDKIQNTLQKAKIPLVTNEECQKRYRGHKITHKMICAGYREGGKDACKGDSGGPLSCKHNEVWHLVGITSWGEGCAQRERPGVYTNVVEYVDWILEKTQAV
T2 sequence (P03951 19-387 partner limits assumed): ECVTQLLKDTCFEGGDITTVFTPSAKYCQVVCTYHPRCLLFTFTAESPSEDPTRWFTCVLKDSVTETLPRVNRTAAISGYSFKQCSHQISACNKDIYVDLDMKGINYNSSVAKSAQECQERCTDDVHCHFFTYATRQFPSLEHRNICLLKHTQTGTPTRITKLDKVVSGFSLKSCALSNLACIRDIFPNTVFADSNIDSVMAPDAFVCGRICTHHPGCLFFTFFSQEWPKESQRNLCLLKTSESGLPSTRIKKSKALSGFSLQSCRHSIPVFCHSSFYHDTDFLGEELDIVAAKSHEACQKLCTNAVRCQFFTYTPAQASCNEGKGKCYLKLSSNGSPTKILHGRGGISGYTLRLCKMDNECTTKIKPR
Sequence of plasma kallikrein (PK) (P03952 391-638 limits assumed, species assumed): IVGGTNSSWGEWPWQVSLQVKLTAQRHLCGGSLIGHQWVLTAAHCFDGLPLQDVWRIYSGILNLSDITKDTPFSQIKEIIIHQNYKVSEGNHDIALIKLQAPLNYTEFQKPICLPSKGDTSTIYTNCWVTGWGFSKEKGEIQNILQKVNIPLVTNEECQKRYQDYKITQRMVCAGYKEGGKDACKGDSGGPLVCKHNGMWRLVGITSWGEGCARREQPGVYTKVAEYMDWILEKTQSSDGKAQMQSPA
Sequence of plasma kallikrein (PK) (P03952 20-390 partner limits assumed, species assumed): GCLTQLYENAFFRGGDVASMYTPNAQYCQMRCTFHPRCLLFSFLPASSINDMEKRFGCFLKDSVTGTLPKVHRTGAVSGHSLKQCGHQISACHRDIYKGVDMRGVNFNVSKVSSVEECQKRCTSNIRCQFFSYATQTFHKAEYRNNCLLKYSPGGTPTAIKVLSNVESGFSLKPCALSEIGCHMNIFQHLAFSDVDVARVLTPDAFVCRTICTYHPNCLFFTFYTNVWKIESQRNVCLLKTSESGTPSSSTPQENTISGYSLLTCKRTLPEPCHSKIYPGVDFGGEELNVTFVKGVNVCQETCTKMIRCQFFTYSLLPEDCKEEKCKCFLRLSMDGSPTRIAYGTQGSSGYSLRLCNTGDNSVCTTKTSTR
Sequence of PK (P03952 391-638 limits assumed): as the sequence (P03952 391-638 limits assumed, species assumed) above
Sequence of PK (P03952 20-390 partner limits assumed): as the sequence (P03952 20-390 partner limits assumed, species assumed) above
T1 sequence (P00748 373-615 limits assumed, other chains not shown): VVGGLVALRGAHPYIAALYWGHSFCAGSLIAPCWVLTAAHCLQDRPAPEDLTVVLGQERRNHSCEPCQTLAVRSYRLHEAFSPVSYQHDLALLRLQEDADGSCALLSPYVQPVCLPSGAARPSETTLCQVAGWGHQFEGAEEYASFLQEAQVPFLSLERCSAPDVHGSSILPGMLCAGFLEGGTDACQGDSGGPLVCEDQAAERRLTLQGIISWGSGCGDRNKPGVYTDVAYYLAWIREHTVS

Row | SMILES | pKi (PK) | pKi (human factor XIIa) | pKi (human factor XIa) | pKi (thrombin) | pKi (plasma kallikrein (PK))
1 | CC(C)(C)C(NC(=O)OC12CC3CC(CC(C3)C1)C2)C(=O)NC(Cc1ccccc1)C(=O)NC(CCCNC(=N)N)C(=O)C(F)(F)F [adamantyloxycarbonyl-D-tert-butylglycine-Phe-Arg-CF3] | 8.70 | – | – | – | –
2 | CC(=O)N[C@H](Cc1ccccc1)C(=O)N1CCC[C@H]1C(=O)N[C@@H](CCCN=C(N)N)B(O)O [DuP 714, Ac-D-Phe-Pro-boroarginine] | 8.80 | – | – | – | –
3 | N=C(N)NCCCC(C=O)NC(=O)C(Cc1ccccc1)NC(=O)C(Cc1ccccc1)NC(=O)OC12CC3CC(CC(C3)C1)C2 [adamantyloxycarbonyl-D-Phe-Phe-arginal] | 7.92 | – | – | – | –
4 | CC(C)(C)OC[C@@H](NS(=O)(=O)Cc1ccccc1)C(=O)NC(CC(=O)O)CC(=O)NCc1ccc(C(=N)N)cc1 (stereo partly drawn) [Inhibitor 32] | – | < 3.00 | 5.09 | < 3.00 | 5.10
5 | C[C@@H](O)[C@H](NC(=O)[C@@H](CO)NS(=O)(=O)Cc1ccccc1)C(=O)NCc1ccc(C(=N)N)cc1 [Inhibitor 13] | – | 4.29 | 6.60 | 5.40 | 6.62
6 | N=C(N)c1ccc(CNC(=O)[C@H](CCC(=O)NCCCOCCOCCOCCCN)NC(=O)[C@@H](CC2CCCCC2)NS(=O)(=O)Cc2ccccc2)cc1 [Inhibitor 59] | – | 6.01 | 7.40 | 7.82 | 7.82
7 | CC(C)(C)OC[C@@H](NS(=O)(=O)Cc1ccc(C(=O)O)cc1)C(=O)N[C@@H](CO)C(=O)NCc1ccc(C(=N)N)cc1 [Inhibitor 65] | – | 4.77 | 7.52 | 5.70 | 7.82
8 | CC(C)(C)OC[C@@H](NS(=O)(=O)Cc1ccccc1)C(=O)N[C@@H](CN)C(=O)NCc1ccc(C(=N)N)cc1 [Inhibitor 33] | – | 5.40 | 6.72 | 8.03 | 7.66
9 | N=C(N)c1ccc(CNC(=O)[C@@H]2CCCN2C(=O)[C@@H](CC2CCCCC2)NS(=O)(=O)Cc2cccc(CN)c2)cc1 [Inhibitor 55] | – | 6.33 | 6.77 | 8.49 | 7.05
